The nature of assay [1]: Reaction rates with butyraldehyde by UV-visible measurements (Method D). Type of assay: physicochemical. The conditions noted are these: for k (second order / condensation rate constant): Method d: butyraldehyde 1 mM, Mn complex 0.04-0.10 mM, 25° C., PBS, absorbance 220 nm. The procedure:
Method D: Reaction Rates with UV-Visible Measurements.
The molar extinction coefficient at 220 nm (ε220) of Mn-15, Mn-16 and Mn-17 was calculated using Beer-Lambert Law: A220=ε220Cl; where A220 is the absorbance at wavelength 220 nm, C is the concentration (M), and l is the cell path length (cm).
The kinetics for reactions of Mn-15, Mn-16 and Mn-17 with butyraldehyde were monitored spectrophotometrically by measuring the change in absorbance at 220 nm. All reactions were carried out at 25° C. in PBS. In each experiment [butyraldehyde]=1 mM and the concentrations of Mn-complex, 0.04 mM, 0.06 mM, 0.08 mM, and 0.10 mM, were varied to estimate the rate law.
At the beginning of the reaction (t=0), the concentration of the starting Mn complex is a0 and the concentration of the aldehyde condensation product is zero. After time t the concentration of the product is x, and the concentration of remaining Mn complex starting material is a0-x. For a first-order reaction
where I is the constant of integration and kobs is the observed rate constant. The rate law and a corresponding second order rate constant k were estimated by plotting reaction velocity as a function of Mn—N(where Mn—N refers to Mn-15, Mn-16, or Mn-17) concentration.
The concentration of Mn—N-Ald (where Mn-Ald refers to the reaction product with either Mn-15, Mn-16, or Mn-17) can be estimated by the following equations, where A0 is the absorbance of Mn—N and A is the absorbance of reaction mixture after time t,
(§1) The novel Mn-PC2A derivatives (FIG. 1A) were synthesized in 6 steps from the pyclen macrocycle. Hydrazone formation kinetics with butyraldehyde as a model compound were measured by UV spectroscopy at 220 nm, 25° C., pH 7.4, PBS. Hydrazone hydrolysis kinetics were measured by HPLC with UV detection at 220 nm using excess formaldehyde to trap the liberated hydrazine and prevent the reverse reaction. Allysine-modified BSA (BSA-Ald, 17.4 mg/mL, […] aldehyde) as a soluble model protein or BSA (17.3 mg/mL, 16.8 μM aldehyde) and Mn-15 or Mn-17 (50-200 μM) were incubated at 37° C. for 3 hours, and 1/T1 was measured at 1.4 T, 37° C., and plotted vs concentration to obtain relaxivity. The protein bound probe was isolated by ultrafiltration and the relaxivity of the protein-bound fraction measured. All Mn concentrations were measured by ICP-MS. Liver fibrosis was induced in male C57BL/6 mice by oral gavage with CCl4 for 12 weeks, 2-3 times per week, while control mice received vehicle (olive oil). 3D FLASH images (TR/TE/FA=15 ms/2 ms/30°, 0.25 mm^3 spatial resolution) were acquired on a 4.7 T Bruker Biospec prior to and dynamically for 40 min p.i. of 100 μmol/kg Mn-15. Liver to muscle contrast to noise was calculated as CNR=(SILiver−SIMuscle)/SDAir where SI=signal intensity and SD=standard deviation in SI.

Assay [2] can be described thus: Kinetics of hydrolysis of butyraldehyde condensation products. Type of assay: physicochemical. How it is done: Quantitative Measurements of Kinetics of Hydrolysis:
One mM solutions of Mn-15-Ald, Mn-16-Ald and Mn-17-Ald (where Mn-Ald refers to the reaction product with either Mn-15, Mn-16, or Mn-17) were prepared by the following procedure: 1 mM (1 mL) of Mn-15, Mn-16 or Mn-17 were prepared in PBS (pH 7.4) followed by addition of butyraldehyde (14.4 mg, […]). The mixture was rocked gently under room temperature for 10 min and then freeze-dried for 12 hours. Then, the obtained white solid was redissolved in 1 mL water.
The HPLC trace of each butyraldehyde reaction product was measured by Method 25 (Mn-15-Ald) and Method 26 (Mn-16-Ald, Mn-17-Ald). Then, a 37% stock solution of formaldehyde was added to give a final formaldehyde concentration of 200 mM.
The hydrolysis of the hydrazone/oxime is reversible. An excess of formaldehyde was added to trap the liberated nitrogen base and thereby push the hydrolysis reaction to completion, allowing the hydrolysis reaction to be monitored without interference from the reverse reaction. So, the kinetics for hydrolysis of Mn-15-Ald, Mn-16-Ald and Mn-17-Ald follows the rate law.
where Y is the % hydrolysis, t is time, kobs,H is the first-order rate constant, and Ymax is the % hydrolysis at t=∞. Kinetic traces were obtained in triplicate, and half-lives were calculated with equation 20: […]
as §1

[3] abbreviates: butyraldehyde reaction product, formaldehyde 200 mM as trap.

Like-named read-outs stand apart in the source and are kept apart here.

In the case of `NNC(CCC(=O)NCCCN1CCN(CC(=O)[O-])Cc2cccc(n2)CN(CC(=O)[O-])CC1)C(=O)O.[Mn+2]` (centres unmarked) [Mn-15], in assay [1], the “fold higher condensation (hydrazone formation) rate constant compared to Mn-17” value turned out to be 3 fold and the “k (second order / condensation rate constant)” value stood at 12.1 M⁻¹ s⁻¹. For the same compound, in assay [2], the hydrolysis rate constant was 0.00103 s⁻¹ and the “times higher hydrolysis rate constant compared to Mn-17” value is recorded as 2 fold. For the same compound, the hydrolysis rate constant in assay [2] (setting [3]) is 1.03 ± 0.15 ×10^−3 s^−1.

As to `NOC(CCC(=O)NCCCN1CCN(CC(=O)[O-])Cc2cccc(n2)CN(CC(=O)[O-])CC1)C(=O)O.[Mn+2]` (centres unmarked) [Mn-16], the “k (second order / condensation rate constant)” value in assay [1] amounted to 2.5 M⁻¹ s⁻¹. For the same compound, the results for the hydrolysis rate constant in assay [2] and in assay [2] (setting [3]) were 7.9e-07 s⁻¹ and 0.79 ± 0.03 ×10^−6 s^−1, respectively.

On to `NNCC(=O)NCCCN1CCN(CC(=O)[O-])Cc2cccc(n2)CN(CC(=O)[O-])CC1.[Mn+2]` [Mn-17], for which the “k (second order / condensation rate constant)” value in assay [1] was determined as 4.6 M⁻¹ s⁻¹. The hydrolysis rate constant in assay [2] was 0.00041 s⁻¹; in assay [2] (setting [3]), 0.41 ± 0.01 ×10^−3 s^−1.

The record behind these values is patent US20240285808A1, “MOLECULAR PROBES FOR IN VIVO DETECTION OF ALDEHYDES” (The General Hospital Corporation, priority 2021, published 2024).
